In patent US7601687B2, “Mechanism for identifying drugs for the treatment of type II diabetes” (BioCrine AB, priority 2006, dated 2009):

Columns and labels:
βGK mRNA = experiment: Endogenous βGK mRNA levels in isolated islets of wild type and βIRKO mice; format: cell-based, mouse; conditions: 16.7 mM glucose or 5 mU insulin/ml
Protocol: (§1) RNA was prepared 60 min after start of stimulation. Amounts of insulin, βGK and β-actln mRNA were quantified by comparative RT-PCR. […] Data are shown as mean values ± S.E. (n=3). (B-D) On-line monitoring of βGK promoter-driven GFP expression (white bars) and insulin promoter-driven DsRed expression (black bars) in co-transfected HIT cells (B,C) or islet cells (B,D).
(§2) Insulin-producing HIT-T15 cells were obtained from ATCC. HIT cells were reported to show glucose responsiveness at subphysiological concentrations between 0.1 and 2 mM (Sharma et al., 1995). HIT cells were grown in RPMI 1640 medium supplemented with 100 units/ml penicillin, 100 μg/ml streptomycin, 2 mM glutamine and 10% fetal calf serum at 5% CO2 and 37° C. Pancreatic islets were isolated from normally fed male Wistar rats and from mice by collagenase digestion. […]
(§3) RNA Analysis Levels of βGK mRNA were analyzed by RNase-protection assays and comparative RT-PCR. […] Quantification of the protected complexes was performed by phosphorimaging. […] Levels of μGK mRNA were analyzed by RT-PCR using primers 5′-[…]-3′(SEQ ID NO: 1) and 5′-[…]-3′(SEQ ID NO: 2) for characterizing μGK mRNA in HIT cells and primers 5′-[…]-3′(SEQ ID NO: 3) and 5′-[…]-3′(SEQ ID NO: 4) for μGK mRNA in rat and mouse pancreatic islets and islet cells. Levels of μ-actin mRNA were analyzed by RT-PCR using primers 5′-[…]-3′(SEQ ID NO: 5) and 5′-[…]-3′(SEQ ID NO: 6). […]

insulin mRNA = experiment: Endogenous insulin mRNA levels in isolated islets of wild type and βIRKO mice; format: cell-based, mouse; conditions: 16.7 mM glucose or 5 mU insulin/ml
Protocol: as §1, §2, §3

rat βGK promoter = experiment: βGK promoter-driven GFP expression in co-transfected human islet cells; format: cell-based; conditions: 5 mU/ml insulin for 5 min, sub-stimulatory glucose
Protocol: Data are presented as the ratio of fluorescence obtained at minutes 240 and 60 and represent mean values ±S.E. (n=11).
Detection of fluorescence by digital imaging fluorescence microscopy was performed as described previously (Leibiger et al., 1998a; Leibiger et al., 1998b). Briefly, transfected cells were grown on 24-mm glass coverslips. After stimulation the coverslips were placed into a perifusion chamber which was mounted on an inverted microscope (Zeiss Axiovert 135TV). Temperature was kept at 37° C. and the cells were perfused with RPMI 1640 medium. The objective lens used was a Zeiss-Fluar ×40/1.30 oil Imm Korr. Fluorescence imaging was performed with a cooled charged-coupled device camera (CH250 with KAF 1400, Photometrics, Tucson, Ariz.) connected to an imaging system (Inovision) with fluorescence excitation from a SPEX fluorolog-2 CM1T11I spectrofluorometer (Spex Industries). […]
On-line monitoring was initiated 60 min following the start of stimulation and the 60-min value of GFP- or DsRed-fluorescence was set to 1.0. Cells to be monitored were chosen randomly at minute 60 from six fields of vision and fluorescence was monitored up to minute 240. By overlaying the fluorescence and phase-contrast images, the position of cells on the coverslip could be checked. Fluorescence intensity was calculated by using the ISee-software for UNIX (Inovision Corporation).

Substance: insulin
- endogenous βGK mRNA levels upon stimulation (βGK mRNA; islets from βIRKO mice): no increase
- endogenous βGK mRNA levels upon stimulation (βGK mRNA; islets of wild type mice): increase
- endogenous insulin mRNA levels upon stimulation (insulin mRNA; islets from βIRKO mice): no increase
- endogenous insulin mRNA levels upon stimulation (insulin mRNA; islets of wild type mice): increase
- βGK promoter-driven GFP expression upon insulin stimulation (rat βGK promoter): up-regulation
